Laboratory results from article PMC10216180, “Dopamine Receptor Ligand Selectivity—An In Silico/In Vitro Insight” (Biomedicines, 2023).
“Also recorded” adds a separate entry of the source. Where two headings read alike, the source gives them in different places. Marks after values point to notes of the source that are not given here.

What was measured:
[1] = biological target: T1, D2R (Homo sapiens, UniProt P14416); design: method as in PMID 35889317; settings: n = 6, ± SD; values from previous experiments; cited from earlier work
T1 construct: expressed in transfected cells; host or cells: D2R carrier cells (not described here)

[2] = biological target: T2, D1R (Homo sapiens, UniProt P21728); experiment: HTRF Ki determination at D1R; assay type: binding; settings: n = 6, ± SD; n.d. = not determinable (highest concentration 100 µM)
Method: (§1) All HTRF assays were performed using an HTRF-compatible plate reader (model Tecan Spark (Tecan Group, Männedorf, Switzerland)). The respective settings were specifically modified and optimized for the determination of D2R ligand-binding affinities. Binding affinities were determined using the same settings for measurements with D1R and D3R carrier cells. […] Fluorophores were excited at 320 nm. A dichroic 510 mirror was used, while lag and integration times of 100 and 400 µs were applied, respectively. Flashes were set to 75. Electronic gain was automatically optimized, while the z-position was optimized based on the well with the highest expected signal. […] The first plate was used to determine the gain and the z-position. Subsequently, the determined values were set manually for the second plate to enable direct comparison between the different plates.
(§2) The cells used for the subsequent screening and detailed investigation of D1R and D3R ligands were acquired from PerkinElmer/cisbio (Waltham, MA, USA; Tag-lite Dopamine D1 or D3a-labeled Cells, ready-to-use (transformed and labeled), 200 tests; C1TT1D1 and C1TT1D3A, respectively). The cells were stored in liquid nitrogen until further use. Fluorescent-labelled ligands (Dopamine D2 Receptor red antagonist Fluorescent Ligand (L0002RED), stored at −20 °C and Dopamine D1 Receptor green antagonist (L0031GRE), stored at −20 °C), assay buffer (5Xconcentrate Tag-lite Buffer (TLB), 100 mL, stored at +4 °C; LABMED), and 96-well plates (HTRF 96-well low-volume white plate; 66PL96005) required for the in vitro assay were also acquired from PerkinElmer/cisbio. The assay was conducted according to the standard operation protocol (SOP) available from PerkinElmer/cisbio. The 96-well plates were incubated at room temperature for 2 h. The 96-well plates were read as described in Section 2.10. The respective concentrations of the dilution series were performed in triplicates. In total, Kd determination was performed twice.
(§3) The Ki was determined in duplicates following the SOP available from PerkinElmer/cisbio and as described in Section 2.10.
(§4) Saturation binding curves were processed and visualized in GraphPad Prism 8 (Nonlinear regression (curve fit), One site—Fit logIC50 was performed using GraphPad Prism version 8.2.1 for Windows, GraphPad Software, San Diego. CA, USA). Molecular docking was performed in GOLD 5.8.0 (CCDC, Cambridge, United Kingdom). […] Two-dimensional structures of all shown compounds were generated using ChemDraw version 19.0 (PerkinElmer, Waltham, MA, USA).

[3] = biological target: T3, D3R (Homo sapiens, UniProt P35462); experiment: HTRF Ki determination at D3R; assay type: binding; settings: for Selectivity D1R/D3R (Ki fold-difference) / Selectivity D2R/D3R (Ki fold-difference): Ki assumed ≥100 µM where n.d.
Method: as §1
The cells used for the subsequent screening and detailed investigation of D1R and D3R ligands were acquired from PerkinElmer/cisbio (Waltham, MA, USA; Tag-lite Dopamine D1 or D3a-labeled Cells, ready-to-use (transformed and labeled), 200 tests; C1TT1D1 and C1TT1D3A, respectively). The cells were stored in liquid nitrogen until further use. […] The assay was conducted according to the standard operation protocol (SOP) available from PerkinElmer/cisbio. The 96-well plates were incubated at room temperature for 2 h. The 96-well plates were read as described in Section 2.10. The respective concentrations of the dilution series were performed in triplicates. In total, Kd determination was performed twice.
as §3, §4

[4] = biological target: T1, D2R; experiment: HTRF Ki determination at D2R; assay type: binding; settings: for Selectivity D1R/D2R (Ki fold-difference): Ki assumed ≥100 µM where n.d.
Method: as §1
The characterization of the D2R carrier cells is detailed in [42].
as §3, §4

[5] = biological target: T1, D2R; settings: 10 µM, n = 4, normalized to the control; cited from earlier work
[6] = biological target: T2, D1R; experiment: HTRF competitive binding screening (NDF) at D1R carrier cells; settings: 10 µM, n = 4, fluorescence decrease normalized to the control
Method: as §1, §2
(§5) The investigated compounds were taken from a previous pharmacophore-based virtual screening study described in Zell et al.. The activities of all compounds were investigated via a competitive binding (in comparison with a fluorescence-labeled ligand) of the respective compounds at D1R/D3R, utilizing an HTRF assay using a screening concentration of 10 µM.

[7] = biological target: T3, D3R; experiment: HTRF competitive binding screening (NDF) at D3R carrier cells; settings: 10 µM, n = 4, fluorescence decrease normalized to the control
Method: as §1, §2, §5

[8] = biological target: D1R; settings: radio-ligand binding, cited from earlier work
[9] = biological target: D3R; settings: radio-ligand binding, cited from earlier work
[10] = biological target: D2R; settings: radio-ligand binding, cited from earlier work
[11] = biological target: T3, D3R; design: method as in PMID 24061855, PMID 19331412; settings: R22 analogues, linker length; cited from earlier work
[12] = Table S3 D2like-selective dataset, ref ChEMBL [56,69,72-106]
[13] = n = 6, ± SD, n.d. = not determinable (highest concentration 100 µM)
[14] = Table S4 D3R-selective dataset, ref ChEMBL [53,56,62-118]

T2 sequence (P21728 whole entry): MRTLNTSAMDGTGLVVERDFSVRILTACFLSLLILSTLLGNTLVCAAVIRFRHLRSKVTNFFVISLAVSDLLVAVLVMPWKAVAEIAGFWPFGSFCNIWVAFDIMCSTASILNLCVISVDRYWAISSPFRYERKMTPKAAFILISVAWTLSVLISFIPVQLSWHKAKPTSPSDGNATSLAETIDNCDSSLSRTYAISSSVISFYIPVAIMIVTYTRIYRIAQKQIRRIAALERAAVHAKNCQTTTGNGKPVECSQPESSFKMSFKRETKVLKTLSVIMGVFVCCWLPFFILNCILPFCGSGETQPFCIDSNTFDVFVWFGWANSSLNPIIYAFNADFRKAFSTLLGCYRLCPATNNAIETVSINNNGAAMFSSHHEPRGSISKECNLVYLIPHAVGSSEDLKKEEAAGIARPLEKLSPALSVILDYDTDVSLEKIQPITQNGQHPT
T3 sequence (P35462 whole entry): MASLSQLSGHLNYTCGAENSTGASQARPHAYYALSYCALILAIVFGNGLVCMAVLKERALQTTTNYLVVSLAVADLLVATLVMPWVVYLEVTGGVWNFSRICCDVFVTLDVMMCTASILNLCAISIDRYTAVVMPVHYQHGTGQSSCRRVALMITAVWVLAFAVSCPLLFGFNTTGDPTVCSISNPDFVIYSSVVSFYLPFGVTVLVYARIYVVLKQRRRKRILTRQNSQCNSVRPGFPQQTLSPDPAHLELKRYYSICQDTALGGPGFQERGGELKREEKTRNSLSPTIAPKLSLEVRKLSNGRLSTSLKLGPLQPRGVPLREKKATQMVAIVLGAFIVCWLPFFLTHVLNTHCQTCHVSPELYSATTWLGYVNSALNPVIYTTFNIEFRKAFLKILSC
T1 sequence (P14416 whole entry): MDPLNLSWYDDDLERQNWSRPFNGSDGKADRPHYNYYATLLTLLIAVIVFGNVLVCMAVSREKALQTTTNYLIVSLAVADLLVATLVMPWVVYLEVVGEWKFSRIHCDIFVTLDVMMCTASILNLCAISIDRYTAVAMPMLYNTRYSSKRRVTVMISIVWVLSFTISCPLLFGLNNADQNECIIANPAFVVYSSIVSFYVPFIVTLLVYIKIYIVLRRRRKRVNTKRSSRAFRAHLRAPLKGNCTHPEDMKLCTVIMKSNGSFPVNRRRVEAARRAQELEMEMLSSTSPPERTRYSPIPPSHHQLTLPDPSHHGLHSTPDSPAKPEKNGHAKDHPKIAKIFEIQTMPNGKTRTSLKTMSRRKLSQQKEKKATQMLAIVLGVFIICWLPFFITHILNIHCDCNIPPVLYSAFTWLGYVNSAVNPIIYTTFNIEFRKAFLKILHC

| Compound | Ki [1] | Ki [2] | Selectivity D1R/D3R (Ki fold-difference) [3] | Selectivity D2R/D3R (Ki fold-difference) [3] | Ki ([3]; n = 6, ± SD) | Selectivity D1R/D2R (Ki fold-difference) [4] | Normalized Decrease in Fluorescence (NDF) ± SD, D2R [5] | Normalized Decrease in Fluorescence (NDF) ± SD, D1R [6] | Normalized Decrease in Fluorescence (NDF) ± SD, D3R [7] | further results |
| --- | --- | --- | --- | --- | --- | --- | --- | --- | --- | --- |
| CN1CCN(C2Cc3ccc(O)cc3Sc3ccc(Cl)cc32)CC1 (centres unmarked) [Compound 2] | 5 ± 2 nM | 9 ± 2 nM | 3.23 | 1.66 | 3 ± 1 nM | 1.95 | 40.41 ± 1.39 | 5.46 ± 1.97 | 4.16 ± 1.08 |  |
| CCN(CCC(=O)Nc1cccc(OC)c1)Cc1ccccc1 [Compound 5] | 11000 ± 4430 nM | 46900 ± 27400 nM | 20.8 | 4.86 | 2250 ± 910 nM | 4.28 | 15.74 ± 18.15 | 1.26 ± 0.64 | 2.65 ± 0.64 |  |
| SC79 |  |  |  |  |  |  |  |  |  | Ki [8, 12]: 10000 nM; Ki [9, 12]: 6.11 nM; Ki [10, 12]: 622 nM |
| O=C(CCN1CCN(c2ccccc2F)CC1)Nc1cccc(F)c1 [Compound 6] | 1350 ± 630 nM | 7760 ± 4410 nM | 20.7 | 3.56 | 370 ± 280 nM | 5.77 | 8.18 ± 3.62 | 2.15 ± 1.16 | 4.21 ± 0.79 |  |
| COc1ccccc1N1CCN(CCCCNC(=O)c2ccc(Cl)cc2)CC1 [Compound 10] |  | 2380 ± 130 nM | 1031.4 | 263.7 | 2 ± 1 nM | 3.91 | 22.89 ± 8.41 | 2.59 ± 1.04 | 4.09 ± 1.07 | Ki [3]: 2.3 nM; Ki [4, 13]: 610 ± 85 nM |
| NC(=O)c1ccccc1OCCCN1CCN(c2ccccc2)CC1 [Compound 9] | 330 ± 93 nM | 9460 ± 1180 nM | 395.1 | 13.8 | 24 ± 3 nM | 28.6 | 22.08 ± 6.62 | 1.71 ± 0.86 | 3.97 ± 0.78 |  |
| COc1cc(CC[C@H](C)NCc2ccccc2)ccc1O [Compound 8] |  |  | >43.1 ^b | >43.1 ^b | 2320 ± 920 nM |  | 1.10 ± 0.52 | 1.20 ± 0.59 | 2.63 ± 0.52 | Ki D1R [2]: inactive; also recorded: no determinable binding affinity; also recorded: no determinable binding affinities; Ki D2R [4, 13]: inactive; also recorded: no determinable binding affinity; also recorded: no determinable binding affinities |
| SC236 |  |  |  |  |  |  |  |  |  | Ki [8, 14]: 1270 nM; Ki [9, 14]: 214 nM; Ki [10, 14]: 2320 nM |
| NS(=O)(=O)c1ccc(CCNCc2ccc(-c3cc(Cl)ccc3Cl)o2)cc1 [Compound 3] | 4660 ± 2690 nM |  |  | 12.2 | 380 ± 22 nM | >21.4 ^b | 3.99 ± 2.58 | 1.78 ± 1.35 | 3.96 ± 1.10 | Ki D1R [2]: inactive |
| SC144 |  |  |  |  |  |  |  |  |  | Ki [8, 12]: 1300 nM; Ki [9, 12]: 3 nM; Ki [10, 12]: 38 nM |
| O=C(NCCCCN1CCN(c2cccc(Cl)c2Cl)CC1)c1cc2ccccc2[nH]1 [C4 analogue] |  |  |  |  |  |  |  |  |  | D2R/D3R-selectivity fold-difference [11]: 45.7 |
| O[C@H](CNCCNc1ccc(C(F)(F)F)cn1)CSc1ccc(F)cc1 [Compound 7] | 2780 ± 1060 nM | 8330 ± 2170 nM | 12.3 | 4.11 | 680 ± 68 nM | 3.00 | 10.85 ± 4.93 | 1.57 ± 0.54 | 3.79 ± 0.70 |  |
| CN1CCc2cccc3c2[C@H]1Cc1ccc(O)c(O)c1-3 [Compound 1, apomorphine, reference compound] |  |  |  |  |  |  | 9.44 ± 5.97 | 3.47 ± 1.04 | 3.82 ± 1.32 |  |
| Oc1cccc(C(O)CNCc2cccc(Cl)c2Cl)c1 (centres unmarked) [Compound 4] |  |  | >27.2 ^b | >27.2 ^b | 3680 ± 940 nM |  | 0.90 ± 0.39 | 0.90 ± 0.31 | 2.75 ± 0.61 | Ki D1R [2]: inactive; also recorded: no determinable binding affinity; also recorded: no determinable binding affinities; Ki D2R [4, 13]: inactive; also recorded: no determinable binding affinity; also recorded: no determinable binding affinities |
